This is an account of results in patent US20130237452A1, “Screening method for selecting plants that show a reduced wound-induced surface discolouration” (RIJK ZWAAN ZAADTEELT EN ZAADHANDEL B.V., priority 2006, published 2013).

SMILES strings stand for the structures. “Also recorded” adds a separate entry of the source. Some results are limits rather than exact numbers.

For test [1], the system named is germinated seeds of lettuce. Briefly: L-DOPA assay on germinated seeds. As for the experimental part: Germinated seeds of lettuce were incubated with L-DOPA. […] This colour reaction can be used for screening seeds that show a reduced discolouration.
Another test has as its system seeds of eggplant. In words: L-DOPA assay on seeds. As to the method: (§1) Seeds of lettuce and eggplant were incubated with 0, 2.5 and 5 mM L-DOPA. […] The response is PPO-dependent because it can be inhibited with L-cysteine.
Another test concerns seeds of lettuce. In words: L-DOPA assay on seeds. As for the experimental part: as §1
In a further test the test system is PPO. In words: L-DOPA leaf disc assay: black discolouration (melanin) at wound surface. The class given is cell-based, lettuce. As to the method:
In addition to assays which address wound-induced discolouration in a broad sense, the method according to this invention also allows to screen in a more specific manner for mutants which have a reduced PPO activity. A phenotypic assay which is indicative for PPO activity was developed by using leaf discs which were incubated in the presence of 1.5 mM L-DOPA. […] Furthermore, it was shown that the reaction can be inhibited by adding 1 mM L-cysteine during the reaction (FIG. 5). Therefore, this assay enabled the identification of mutants which are modified in the ability to mount a PPO activity at a wound surface of a leaf. The response of lettuce leaf discs to the presence of L-DOPA can be observed both in solution as well as between wetted filter papers as shown in FIG. 13.

A further test concerns lettuce leaf discs. Briefly: leaf disc pinking assay: wound-induced pink discolouration between wetted filter papers. In kind it is cell-based. As to conditions: for effect on formation of the pink dye (pinking response): applied during the reaction; for concentration at which the pink discolouration was completely inhibited: applied during the assay, 5° C. for 7 days. As to the method:
A phenotypic assay was developed in which leaf discolouration of lettuce induced by wounding can readily be assessed. This approach allows young plant screening for discolouration. Leaf discs of 5 mm diameter were taken from young or mature plants and placed between wetted filter papers in a tray. The system was incubated at 5° C. for 7 days. During the incubation a pink dye developed at the wound site of the leaf disc which became clearly visible as a printed circle on the filter paper (FIG. 2).

Test [2] concerns lettuce outer leaf midrib tissue discs. In words: midrib disc / cut leaf browning assay. In kind it is cell-based. As for the experimental part:
A further embodiment of this invention is based on the following experiment. Parts of a lettuce leaf of a head are produced by cutting and incubated at 16° C. in air. As a response the wound surface turns brown after approximately 4 days. Especially at the wound surface of the main vein the browning can clearly be observed. Furthermore, the browning reaction can also be observed at the whole plant level upon damaging leaves by cutting or abrasion. Lettuce plants were grown to maturity and parts of outer leaves were taken by cutting discs from the rib tissue. The discs were incubated on wetted filter paper at 16° C. After approximately 72 hours, the wound surface had turned brown.

The test system of test [3] is field-grown lettuce plant showing severe pinking symptoms. In words: pinking of leaf discs from field-grown lettuce. Conditions: 1 mM, approximately 30 minutes at room temperature. As for the experimental part:
This is typically observed when plants have been stressed, for example by conditions of severe water logging. The leaf was used to prepare leaf discs which were incubated immediately by 1 mM L-cysteine.

Test [4] can be described thus: treatment of melanin formed in the L-DOPA assay after the response was completed. Also on record: species or system lettuce. Conditions: added after the response was completed; 0-10 mM series. As for the experimental part:
(§2) As L-cysteine is known to react with o-quinones, which are PPO products, by converting them back into colourless diphenols, the effects of L-cysteine on the pink dye coming from lettuce leaf discs was determined. In parallel the effect of L-cysteine was determined on the melanin formation upon incubation with L-DOPA. Leaf discs were taken and incubated according to the procedures described above. After the wound response was completed, a concentration series of L-cysteine was added to the leaf disc and the change in colour was monitored.

Another test concerns leaf discs of lettuce. Briefly: chlorogenic acid assay on leaf discs. In kind it is cell-based. As for the experimental part:
Leaf discs of lettuce were incubated with 10 mM chlorogenic acid on filter paper.

A short description of test [5]: treatment of the formed pink dye after the wound response was completed. The arrangement: species or system lettuce. As to conditions: added after the wound response was completed; 0-10 mM series for L-cysteine. As for the experimental part:
as §2

A further test relates to lettuce seeds. In words: catechol assay on seeds. As to the method:
Lettuce seeds were incubated with 0, 100, 250, 500, 750 and 1000 mg/L catechol.

Regarding `N[C@@H](Cc1ccc(O)c(O)c1)C(=O)O` [L-DOPA, L-3,4-dihydroxyphenylalanine], the “colour reaction of seed coat and root zone with the substrate” value in test [1] is on record as “show a colour reaction”. Also, the “colour reaction of seeds with the substrate” value is reported as “concentration dependent” in the test on seeds of eggplant (0, 2.5 and 5 mM); “concentration dependent” in the test on seeds of lettuce (0, 2.5 and 5 mM). In addition, the “discolouration at the wound surface on incubation with the substrate” value in the test with PPO (1.5 mM L-DOPA) is reported as “dark brown to black discolouration”.

On to `C[C@H](N)C(=O)O` [L-alanine], for which, in the test on lettuce leaf discs, the “effect on formation of the pink dye (pinking response)” value (“effect on formation of the pink dye” for short) is reported as “did not show any effect”.

As to `N[C@@H](CS)C(=O)O` [L-cysteine], the “effect on browning response of midrib discs” value in [2] (10 mM, 16° C., approximately 72 hours) is “inhibited”. Also, in test [2] (16° C. in air, concentration not given), the “effect on wound-induced browning reactions (cut leaf parts, whole plant)” value is recorded as “completely be inhibited”. Further, in test [3], the “effect on pink discolouration of field-grown leaf material” value is given as “pink discolouration disappeared; also recorded: eliminated”. In the test with lettuce leaf discs, the “concentration at which the pink discolouration was completely inhibited” value was at least 0.001% and the “effect on formation of the pink dye” value is on record as “strongly suppressed”. Moreover, in test [4], the “effect on already formed black melanin” value is on record as “not affected”. Besides, the “effect on L-DOPA colour response of seeds” value in the test with seeds of eggplant is “inhibited”. The “effect on L-DOPA colour response of seeds” value in the test with seeds of lettuce was “inhibited”. Moreover, the “effect on chlorogenic acid induced colour” value in the test with leaf discs of lettuce (added to discs incubated with 10 mM chlorogenic acid) is reported as “the colour disappeared again”. Moreover, in test [5], the “effect on the already formed pink dye” value is “converting the pink dye back into a colourless compound; also recorded: converted into a colourless compound”. In addition, the “effect on catechol colour response of seeds” value with lettuce seeds was “inhibited”. Besides, in the test with PPO (applied simultaneously with L-DOPA), the “effect on black L-DOPA discolouration” value is on record as “completely inhibited”.

Regarding `CC(C)C[C@H](N)C(=O)O` [L-leucine], the “effect on formation of the pink dye” value in the test with lettuce leaf discs is recorded as “did not show any effect”.

Regarding `O=C1O[C@H]([C@@H](O)CO)C(O)=C1O` [ascorbic acid], in [5], the “effect on the already formed pink dye” value is “convert the pink dye into a colourless compound”.

Consider `Oc1ccccc1O` [catechol], for which the “colour response of seeds with the substrate” value in the test on lettuce seeds (0, 100, 250, 500, 750 and 1000 mg/L) is listed as “concentration dependent colour response”.

Regarding `O=C(/C=C/c1ccc(O)c(O)c1)O[C@@H]1C[C@](O)(C(=O)O)C[C@@H](O)[C@H]1O` [chlorogenic acid], the “discolouration of discs on incubation with the substrate” value in the test with leaf discs of lettuce (10 mM on filter paper) is listed as “browning”.

`O=CC=Cc1ccccc1` [cinnamaldehyde]: in the test on lettuce leaf discs, the “concentration at which the pink discolouration was completely inhibited” value is at least 0.01% and the “effect on formation of the pink dye” value was “inhibited”.

For `N[C@@H](CCC(=O)N[C@@H](CS)C(=O)NCC(=O)O)C(=O)O` [glutathion], the “effect on the already formed pink dye” value in test [5] is listed as “convert the pink dye into a colourless compound”.
